According to US6323235A, “Benzene-condensed heterocyclic derivatives and their uses” (priority 1995, dated 2001):

Columns and labels:
[1] = system: platelet aggregation induced by TXA2 agonist U-46619; test: Platelet Aggregation-inhibition Action 1 (U-46619-induced, platelet-rich plasma); format: cell-based; details: U-46619 1-4 μM final, PRP, compound added one minute before U-46619
Description: Platelet Aggregation-inhibition Action 1
(§1) Blood collected from medial cubital vein is centrifuged at 800 rmp for 10 minutes and the upper portion of the resultant is collected as platelet-rich plasma (PRP). The PRP is dividedly poured into small test tubes and a TXA2 agonist U-46619 is added thereto (final concentration: 1-4 μM) so as to induce platelet aggregation. The degree of platelet aggregation is measured in terms of change in turbidity by a platelet aggregation measuring apparatus (Hematoracer, NIKO BIOSCIENCE). The compound is added one minute before the addition of U-46619 and the concentration of the compound at which the aggregation is inhibited by 50% is calculated as IC50 value.

[2] = system: platelet aggregation induced by ADP; test: Platelet Aggregation-Inhibition Action 2 (ADP-induced, platelet-rich plasma); format: cell-based; details: ADP 1-3 μM final, PRP, compound added one minute before ADP
Description: Platelet Aggregation-Inhibition Action 2
as §1, with “PRP).” for “(PRP).”, “ADP” for “a TXA2 agonist U-46619”, “1-3” for “1-4”, “Hematoracer,” for “(Hematoracer,”, “ADP” for “U-46619 and”

[3] = biological target: T1, TXA2 receptor (Oryctolagus cuniculus, UniProt Q6WQI8); test: TXA2 Receptor Binding Test 1 ([3H]SQ29548, washed rabbit platelets); set-up: species or system New Zealand White rabbit; details: [3H]SQ29548 3 nM, rabbit washed platelets 10 mg/ml, 25° C., 60 minutes
T1 sequence (Q6WQI8 1-233): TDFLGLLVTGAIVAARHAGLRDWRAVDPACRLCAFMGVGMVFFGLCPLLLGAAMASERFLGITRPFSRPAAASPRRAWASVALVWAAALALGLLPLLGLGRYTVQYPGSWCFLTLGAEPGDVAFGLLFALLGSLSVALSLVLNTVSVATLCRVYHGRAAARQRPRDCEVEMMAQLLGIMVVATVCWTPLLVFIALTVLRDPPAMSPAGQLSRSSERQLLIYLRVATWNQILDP
Description: TXA2 Receptor Binding Test 1
Blood from a New Zealand White rabbit is taken in a vessel containing ACD solution (prepared by dissolving 1.175 g of sodium citrate, 0.685 g of citric acid and 1 g of dextrose in 50 ml of distilled water) and centrifuged at 180×g for 10 minutes at room temperature to obtain platelet-rich plasma. The obtained platelet-rich plasma is centrifuged at […] at room temperature to precipitate platelets. The platelets are then suspended in 50 mM Tris-HCl buffer (pH 7.2, containing 0.154M of NaCl) and the suspension is centrifuged at 2800×g for 15 minutes at 4° C. These operations are repeated twice to prepare washed platelets and the concentration of the platelets are adjusted to a final concentration of 10 mg/ml (wet weight).
As the ligand of TXA2, tritium-labelled SQ29548 ([^3 H]SQ29548) is used. In the antagonism test, 20 μl of [^3 H]SQ29548 having a final concentration of 3 nM is added to 500 μl of a platelet suspension having a platelet concentration of 10 mg/ml and 2.6 μl of a solution of a test compound dissolved in an appropriate solvent is added thereto. After incubating the resulting mixture at 25° C. for 60 minutes, the mixture is filtered through a glass filter by the cell harvester method. After washing the filter with 50 mM Tris-HCl buffer (3×4 ml), the radioactivity of the filter is measured by a scintillation counter, thereby measuring the amount of the [^3 H]SQ29548 bound to platelets. In the saturation test, 20 μl of [^3 H]SQ29548 is added to a final concentration of 0.1-50 nM and 2.6 μl of BM13505 having a final concentration of 1 μM is added so as to check non-specific binding, followed by carrying out the binding test. The concentration of the test compound at which binding of [^3 H]SQ29548 is inhibited by 50% is determined as the IC50 value.
The results of the evaluation of the activities of the compounds of the present invention by this method are summarized d in Table 3.

[4] = biological target: T2, TXA2 receptor (Homo sapiens, UniProt P21731); test: TXA2 Receptor Binding Test 2 ([3H]SQ29548, human platelet membrane fraction); details: 25° C., 30 minutes, pH 7.4, Ki=IC50/[1+(radioactive ligand concentration/Kd)]
T2 construct: the finally obtained precipitate was collected as the platelet membrane fraction; endogenous in cells; host or cells: membrane fraction of human platelets
T2 sequence (P21731 1-343): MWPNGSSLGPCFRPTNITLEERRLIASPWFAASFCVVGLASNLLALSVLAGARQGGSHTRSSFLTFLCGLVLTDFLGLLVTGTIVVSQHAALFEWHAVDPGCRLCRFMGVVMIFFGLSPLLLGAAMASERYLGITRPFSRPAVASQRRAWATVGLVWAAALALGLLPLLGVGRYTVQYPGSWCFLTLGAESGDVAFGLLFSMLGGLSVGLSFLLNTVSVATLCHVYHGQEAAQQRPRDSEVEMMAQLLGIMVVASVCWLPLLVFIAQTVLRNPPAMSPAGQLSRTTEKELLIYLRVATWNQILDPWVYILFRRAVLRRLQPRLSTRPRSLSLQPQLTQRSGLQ
Description: TXA2 Receptor Binding Test 2
Blood collected from human forearm vein and ACD solution (85 mM trisodium citrate, 65 mM citric acid, 2% glucose) in an amount of 1/10 volume of the blood were mixed the resultant was dividedly poured into Spitz tubes an amount of 8 ml/tube. The mixture was centrifuged at 200×g for 10 minutes at room temperature to obtain platelet-rich plasma and the obtained platelet-rich plasma was centrifuged at 1000×g for 15 minutes to obtain platelets. The platelets were washed by centrifugation using a washing buffer (115 mM sodium chloride, 4.3 mM potassium dihydrogen phosphate, 5.5 mM glucose, 1 mM disodium EDTA, 10 μM indomethacin, pH 6.5) and 1 ml of a melting buffer (10 mM Tris(hydroxymethyl)aminomethane, 5 mM magnesium chloride, 2 mM disodium EDTA, pH 7.4) was added. The resultant was frozen in liquid nitrogen and thawed at room temperature. By repeating freezing in liquid nitrogen and thawing totally three times, the platelets were ruptured. The resultant was washed three times by ultracentrifugation (40,000×g, each 20 minutes) using iced 5 mM Tris-HCl buffer, and the finally obtained precipitate was collected as the platelet membrane fraction.
As the ligand of TXA2, tritium-labelled SQ29548 ([^3 H]SQ29548) was used. As the solvent for the receptor binding reaction, 50 mM Tris-HCl buffer (5 mM magnesium chloride, pH 7.4) was used. […] The filter was washed with a iced buffer and radioactivity was measured by scintillation counter. The non-specific binding to substances other than the platelets was measured by the reaction in the presence of SQ29548 having a final concentration of […]. The IC50 value of the test compound and Hill coefficient in the binding test was determined by Pseudo-Hill plot. The receptor dissociation constant (Ki value) was calculated according to the following equation from the IC50 value and the receptor dissociation constant (Kd value) of [^3 H]SQ29548 determined in the saturation test. […]

[5] = biological target: T3, PGI2 receptor (Homo sapiens, UniProt P43119); test: PGI2 Receptor Binding Test ([3H]APS-314d, platelet membrane fraction); details: platelet membrane fraction 0.1 mg protein/ml, 4° C., 60 minutes, Ki=IC50/[1+(radioactive ligand concentration/Kd)]
T3 construct: platelet membrane fraction having a concentration of 0.1 mg protein/ml; endogenous in cells
Description: PGI2 Receptor Binding Test
As the ligand of PGI2 receptor, tritium-labelled (1R,2R,3aS,8bS)-2,3,3a,8-tetrahydro-2-hydroxy-1-[(E)-(3S,4S)-3-hydroxy-4-methyl-1-octene-6-ynyl]-1H-cyclopenta[b]benzofuran-5-butanoic acid ([^3 H]APS-314d) was used. The saturation test was carried out by reacting [^3 H]APS-314d (100 μl) having a final concentration of 3-100 nM with a suspension (100 μl) of platelet membrane fraction having a concentration of 0.1 mg protein/ml at 4° C. for 60 minutes under shaking. The competition test was carried out by mixing a mixture (100 μl) of a test compound dissolved in an appropriate solvent and then diluted and [^3 H]APS-314d, and the suspension of platelet membrane fraction (100 μl) having a concentration of 0.1 mg protein/ml, and allowing the mixture to react at 4° C. for 60 minutes under shaking. After the reaction, the resultant was filtered through a glass filter using a cell harvester to collect the membrane fraction on the glass filter. The filter was washed with a iced buffer and radioactivity was measured by scintillation counter. The non-specific binding to substances other than the platelets was measured by the reaction in the presence of sodium beraprost having a final concentration of 10 nM. The IC50 value of the test compound and Hill coefficient in the binding test was determined by Pseudo-Hill plot. The receptor dissociation constant (Ki value) was calculated according to the following equation from the IC50 value and the receptor dissociation constant (Kd value) of [^3 H]APS-314d determined in the saturation test.
Ki=IC50 /[1+(radioactive ligand concentration/Kd)]

T3 sequence (P43119 whole entry): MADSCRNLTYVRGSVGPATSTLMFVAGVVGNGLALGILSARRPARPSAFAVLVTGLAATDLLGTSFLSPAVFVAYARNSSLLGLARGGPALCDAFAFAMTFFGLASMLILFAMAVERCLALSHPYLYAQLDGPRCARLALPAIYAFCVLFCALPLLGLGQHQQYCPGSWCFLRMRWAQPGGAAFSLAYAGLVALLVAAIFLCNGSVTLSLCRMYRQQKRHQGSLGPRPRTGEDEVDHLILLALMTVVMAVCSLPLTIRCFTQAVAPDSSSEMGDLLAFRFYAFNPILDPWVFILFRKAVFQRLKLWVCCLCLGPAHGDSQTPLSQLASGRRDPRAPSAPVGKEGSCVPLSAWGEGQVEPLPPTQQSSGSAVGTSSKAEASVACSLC

Row | Compound | IC50 [1] [nM] | IC50 [2] [nM] | IC50 [3] [nM] | Ki [4] [nM] | Ki [5] [nM]
1 | Cc1oc2c(OCC(=O)O)cccc2c1CNS(=O)(=O)Cc1ccccc1 [Example 15, Methyl (3-((benzylsulfonylamino)methyl)-2-methylbenzofuran-7-yloxy)acetic acid] | 1000 | 201000 | 1100 |  | 
2 | Cc1oc2c(OCC(=O)O)cccc2c1CNS(=O)(=O)CCc1ccccc1 [Example 16, (3-(((2-phenylethyl)sulfonylamino)methyl)-2-methylbenzofuran-7-yloxy)aceticacid] | 500 | 403000 | 54.5 |  | 
3 | Cc1oc2c(OCC(=O)O)cccc2c1CCSCCc1ccccc1 [Example 31, (3-(2-(2-phenylethylthio)ethyl)-2-methylbenzofuran-7-yloxy)acetic acid] | 440 | 265000 | 51.3 |  | 
4 | O=C(O)COc1cccc2c(COCCC(c3ccccc3)c3ccccc3)coc12 [Example 48, (3-((3,3-diphenylpropyloxy)methyl)benzofuran-7-yloxy)acetic acid] | 4800 | 7800 |  | 7700 | 380
5 | COC(=O)COc1cccc2c(CCSC(c3ccccc3)c3ccccc3)coc12 [Example 67, Methyl (3-(2-(diphenylmethylthio)ethyl)benzofuran-7-yloxy)acetate] |  |  |  | 310 | 
6 | O=C(O)COc1cccc2c(CCSC(c3ccccc3)c3ccccc3)coc12 [Example 68] | 900 | 6200 |  |  | 410
7 | O=C(O)COc1cccc2c1ccn2CCNS(=O)(=O)c1ccccc1 [Example 104, (1-(2-(phenylsulfonylamino)ethyl)indole-4-yloxy)acetic acid] | 5100 |  | 26.7 |  | 
8 | O=C(O)COc1cccc2c1ccn2CCCC(c1ccccc1)c1ccccc1 [Example 118, (1-(4,4-diphenylbutyl)indole-4-yloxy)acetic acid] | 1700 | 3600 |  | 3600 | 440
